How the values of series [1] were obtained: A formulation comprising imazapic, benzyl alcohol and Tween-20 as detailed in Table 1 was prepared by (i) adding benzyl alcohol to a reactor; adding Tween-20 while mixing; (iii) gradually adding imazapic and continue mixing until the solution obtained is clear; (iv) discharging said solution from the reactor; and (v) filtering the solution using a 5 μm filter.

The conditions of series [2]: 20° C., cited from earlier work.
The conditions of series [3]: 20° C.; cited from earlier work.

Like-named read-outs stand apart in the source and are kept apart here.

Consider `Cc1cnc(C2=NC(=O)C(C)(C(C)C)N2)c(C(=O)O)c1` (stereo not drawn) [imazapic], for which the “solubility in organic solvents suitable for agricultural applications” value in series [1] is listed as “dissolve”.

For the compound `CC(C)N(C)S(=O)(=O)NC(=O)c1cc(-n2c(=O)cc(C(F)(F)F)n(C)c2=O)c(F)cc1Cl` [saflufenacil, 2-chloro-5-[3,6-dihydro-3-methyl-2,6-dioxo-4-(trifluoromethyl)-1-(2H)pyrimidinyl]-4-fluoro-N-[[methyl(1-methylethyl)amino]sulfonyl]benzamide], in series [2] (pH 5), the solubility in water is on record as 0.0025 g/100 mL. In series [2] (pH 7), the solubility in water is 0.21 g/100 mL. Moreover, in series [3], the “solubility in isopropyl alcohol” value is 0.25 g/100 mL, the solubility in methanol is 2.98 g/100 mL and the solubility in octanol was < 0.01 g/100 mL.

The values are drawn from patent US20240147998A1, “HERBICIDAL COMPOSITIONS COMPRISING IMIDAZOLINONE-BASED ACETOLACTATE SYNTHASE INHIBITORS AND USES THEREOF” (Adama Agan Ltd., priority 2021, published 2024).
